{"source": "PubChem BioAssay AID1963963", "about": "(Molecular Pharmacology Branch, DTP, NCI, 2024)", "tested_on": "958667-338-R-J2-PDC tumor spheroids viability", "assay": "Anticancer human tumor 958667-338-R-J2-PDC patient-derived colon adenocarcinoma cell line growth inhibition [PI3K]", "settings": "spheroids with HUVEC and MSC; for IC50: curve of first compound; for viability, T/C: stronger effect = lower value", "procedure,_shortened": "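Tumor cells were combined with HUVEC and MSCs into spheroids, then dosed with PI3K-inhibitor combinations over half-log ranges capped near clinical Cmax or 10 microM.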", "key": {"[1]": {"settings": "second compound 0.0316 µM, first compound 0.0316 µM"}, "[2]": {"settings": "second compound 0.0316 µM, first compound 0.1 µM"}, "[3]": {"settings": "second compound 0.1 µM, first compound 0.0316 µM"}, "[4]": {"settings": "second compound 0.1 µM, first compound 0.1 µM"}, "[5]": {"settings": "second compound 0.316 µM, first compound 0.0316 µM"}, "[6]": {"settings": "second compound 0.316 µM, first compound 0.1 µM"}, "[7]": {"settings": "second compound 1 µM, first compound 0.0316 µM"}, "[8]": {"settings": "second compound 1 µM, first compound 0.1 µM"}}, "data": [{"compound": "CC(C)n1nc(-c2ccc3oc(N)nc3c2)c2c(N)ncnc21", "note": "+ CC(Nc1ccc2c(c1)OCCn1cc(N3C(=O)OCC3C(F)F)nc1-2)C(N)=O;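 note: spheroids exposed to compounds for seven days before readout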", "values": [{"measurement": "IC50", "setting": "second compound 0.00316 µM", "result": 0.0651, "unit": "µM"}, {"measurement": "IC50", "setting": "second compound 0.01 µM", "result": 0.0649, "unit": "µM"}, {"measurement": "IC50", "setting": "second compound 0.0316 µM", "result": 0.0436, "unit": "µM"}, {"measurement": "IC50", "setting": "second compound 0.1 µM", "result": 0.0525, "unit": "µM"}, {"measurement": "IC50", "setting": "second compound 0.316 µM", "result": 0.0287, "unit": "µM"}, {"measurement": "IC50", "setting": "second compound 1 µM", "result": 0.00271, "unit": "µM"}, {"measurement": "viability, T/C", "setting": "second compound 0.00316 µM, first compound 0.000316 µM", "result": 103, "unit": "%"}, {"measurement": "viability, T/C", "setting": "second compound 0.00316 µM, first compound 0.001 µM", "result": 120, "unit": "%"}, {"measurement": "viability, T/C", "setting": "second compound 0.00316 µM, first compound 0.00316 µM", "result": 92.5, "unit": "%"}, {"measurement": "viability, T/C", "setting": "second compound 0.00316 µM, first compound 0.01 µM", "result": 91.7, "unit": "%"}, {"measurement": "viability, T/C", "setting": "second compound 0.00316 µM, first compound 0.0316 µM", "result": 80.8, "unit": "%"}, {"measurement": "viability, T/C", "setting": "second compound 0.00316 µM, first compound 0.1 µM", "result": 33.3, "unit": "%"}, {"measurement": "viability, T/C", "setting": "second compound 0.01 µM, first compound 0.000316 µM", "result": 109, "unit": "%"}, {"measurement": "viability, T/C", "setting": "second compound 0.01 µM, first compound 0.001 µM", "result": 109, "unit": "%"}, {"measurement": "viability, T/C", "setting": "second compound 0.01 µM, first compound 0.00316 µM", "result": 95.9, "unit": "%"}, {"measurement": "viability, T/C", "setting": "second compound 0.01 µM, first compound 0.01 µM", "result": 94.7, "unit": "%"}, {"measurement": "viability, T/C", "setting": "second compound 0.01 µM, first compound 0.0316 µM", "result": 71, "unit": "%"}, {"measurement": "viability, T/C", "setting": "second compound 0.01 µM, first compound 0.1 µM", "result": 37.1, "unit": "%"}, {"measurement": "viability, T/C", "setting": "second compound 0.0316 µM, first compound 0.000316 µM", "result": 99.5, "unit": "%"}, {"measurement": "viability, T/C", "setting": "second compound 0.0316 µM, first compound 0.001 µM", "result": 74.3, "unit": "%"}, {"measurement": "viability, T/C", "setting": "second compound 0.0316 µM, first compound 0.00316 µM", "result": 81.5, "unit": "%"}, {"measurement": "viability, T/C", "setting": "second compound 0.0316 µM, first compound 0.01 µM", "result": 65, "unit": "%"}, {"measurement": "viability, T/C", "setting": "[1]", "result": 64.5, "unit": "%"}, {"measurement": "viability, T/C", "setting": "[2]", "result": 32.9, "unit": "%"}, {"measurement": "viability, T/C", "setting": "second compound 0.1 µM, first compound 0.000316 µM", "result": 79.3, "unit": "%"}, {"measurement": "viability, T/C", "setting": "second compound 0.1 µM, first compound 0.001 µM", "result": 86.9, "unit": "%"}, {"measurement": "viability, T/C", "setting": "second compound 0.1 µM, first compound 0.00316 µM", "result": 85.9, "unit": "%"}, {"measurement": "viability, T/C", "setting": "second compound 0.1 µM, first compound 0.01 µM", "result": 75.3, "unit": "%"}, {"measurement": "viability, T/C", "setting": "[3]", "result": 68, "unit": "%"}, {"measurement": "viability, T/C", "setting": "[4]", "result": 28.7, "unit": "%"}, {"measurement": "viability, T/C", "setting": "second compound 0.316 µM, first compound 0.000316 µM", "result": 58.2, "unit": "%"}, {"measurement": "viability, T/C", "setting": "second compound 0.316 µM, first compound 0.001 µM", "result": 59.8, "unit": "%"}, {"measurement": "viability, T/C", "setting": "second compound 0.316 µM, first compound 0.00316 µM", "result": 66.2, "unit": "%"}, {"measurement": "viability, T/C", "setting": "second compound 0.316 µM, first compound 0.01 µM", "result": 65.1, "unit": "%"}, {"measurement": "viability, T/C", "setting": "[5]", "result": 48.9, "unit": "%"}, {"measurement": "viability, T/C", "setting": "[6]", "result": 21.8, "unit": "%"}, {"measurement": "viability, T/C", "setting": "second compound 1 µM, first compound 0.000316 µM", "result": 65.7, "unit": "%"}, {"measurement": "viability, T/C", "setting": "second compound 1 µM, first compound 0.001 µM", "result": 53.8, "unit": "%"}, {"measurement": "viability, T/C", "setting": "second compound 1 µM, first compound 0.00316 µM", "result": 45.6, "unit": "%"}, {"measurement": "viability, T/C", "setting": "second compound 1 µM, first compound 0.01 µM", "result": 44.3, "unit": "%"}, {"measurement": "viability, T/C", "setting": "[7]", "result": 35.4, "unit": "%"}, {"measurement": "viability, T/C", "setting": "[8]", "result": 23.5, "unit": "%"}]}, {"compound": "CC1(C)CCC(Nc2ncc(C(F)(F)F)c(-c3c[nH]c4c(P(C)(C)=O)c(C#N)ccc34)n2)CN1", "note": "(centres undefined) + CC(Nc1ncnc2nc[nH]c12)c1cc2cccc(Cl)c2c(=O)n1-c1ccccc1", "values": [{"measurement": "IC50", "setting": "second compound 0.0316 µM", "result": 4.48, "unit": "µM"}, {"measurement": "IC50", "setting": "second compound 0.1 µM", "result": 2.34, "unit": "µM"}, {"measurement": "IC50", "setting": "second compound 0.316 µM", "result": 4.17, "unit": "µM"}, {"measurement": "IC50", "setting": "second compound 1 µM", "result": 3.12, "unit": "µM"}, {"measurement": "IC50", "setting": "second compound 3.16 µM", "result": 3.03, "unit": "µM"}, {"measurement": "IC50", "setting": "second compound 10 µM", "result": 3, "unit": "µM"}, {"measurement": "viability, T/C", "setting": "[1]", "result": 101, "unit": "%"}, {"measurement": "viability, T/C", "setting": "[2]", "result": 94.6, "unit": "%"}, {"measurement": "viability, T/C", "setting": "second compound 0.0316 µM, first compound 0.316 µM", "result": 82.8, "unit": "%"}, {"measurement": "viability, T/C", "setting": "second compound 0.0316 µM, first compound 1 µM", "result": 69, "unit": "%"}, {"measurement": "viability, T/C", "setting": "second compound 0.0316 µM, first compound 3.16 µM", "result": 70.1, "unit": "%"}, {"measurement": "viability, T/C", "setting": "second compound 0.0316 µM, first compound 10 µM", "result": 25.9, "unit": "%"}, {"measurement": "viability, T/C", "setting": "[3]", "result": 113, "unit": "%"}, {"measurement": "viability, T/C", "setting": "[4]", "result": 72.1, "unit": "%"}, {"measurement": "viability, T/C", "setting": "second compound 0.1 µM, first compound 0.316 µM", "result": 72, "unit": "%"}, {"measurement": "viability, T/C", "setting": "second compound 0.1 µM, first compound 1 µM", "result": 62.5, "unit": "%"}, {"measurement": "viability, T/C", "setting": "second compound 0.1 µM, first compound 3.16 µM", "result": 64.9, "unit": "%"}, {"measurement": "viability, T/C", "setting": "second compound 0.1 µM, first compound 10 µM", "result": 20, "unit": "%"}, {"measurement": "viability, T/C", "setting": "[5]", "result": 98, "unit": "%"}, {"measurement": "viability, T/C", "setting": "[6]", "result": 106, "unit": "%"}, {"measurement": "viability, T/C", "setting": "second compound 0.316 µM, first compound 0.316 µM", "result": 80.4, "unit": "%"}, {"measurement": "viability, T/C", "setting": "second compound 0.316 µM, first compound 1 µM", "result": 74, "unit": "%"}, {"measurement": "viability, T/C", "setting": "second compound 0.316 µM, first compound 3.16 µM", "result": 63.9, "unit": "%"}, {"measurement": "viability, T/C", "setting": "second compound 0.316 µM, first compound 10 µM", "result": 24.6, "unit": "%"}, {"measurement": "viability, T/C", "setting": "[7]", "result": 82.4, "unit": "%"}, {"measurement": "viability, T/C", "setting": "[8]", "result": 103, "unit": "%"}, {"measurement": "viability, T/C", "setting": "second compound 1 µM, first compound 0.316 µM", "result": 90.6, "unit": "%"}, {"measurement": "viability, T/C", "setting": "second compound 1 µM, first compound 1 µM", "result": 65.4, "unit": "%"}, {"measurement": "viability, T/C", "setting": "second compound 1 µM, first compound 3.16 µM", "result": 54.5, "unit": "%"}, {"measurement": "viability, T/C", "setting": "second compound 1 µM, first compound 10 µM", "result": 30.8, "unit": "%"}, {"measurement": "viability, T/C", "setting": "second compound 3.16 µM, first compound 0.0316 µM", "result": 117, "unit": "%"}, {"measurement": "viability, T/C", "setting": "second compound 3.16 µM, first compound 0.1 µM", "result": 96.1, "unit": "%"}, {"measurement": "viability, T/C", "setting": "second compound 3.16 µM, first compound 0.316 µM", "result": 86, "unit": "%"}, {"measurement": "viability, T/C", "setting": "second compound 3.16 µM, first compound 1 µM", "result": 64.1, "unit": "%"}, {"measurement": "viability, T/C", "setting": "second compound 3.16 µM, first compound 3.16 µM", "result": 60.8, "unit": "%"}, {"measurement": "viability, T/C", "setting": "second compound 3.16 µM, first compound 10 µM", "result": 21.8, "unit": "%"}, {"measurement": "viability, T/C", "setting": "second compound 10 µM, first compound 0.0316 µM", "result": 84.6, "unit": "%"}, {"measurement": "viability, T/C", "setting": "second compound 10 µM, first compound 0.1 µM", "result": 69.1, "unit": "%"}, {"measurement": "viability, T/C", "setting": "second compound 10 µM, first compound 0.316 µM", "result": 84.2, "unit": "%"}, {"measurement": "viability, T/C", "setting": "second compound 10 µM, first compound 1 µM", "result": 66.3, "unit": "%"}, {"measurement": "viability, T/C", "setting": "second compound 10 µM, first compound 3.16 µM", "result": 49.6, "unit": "%"}, {"measurement": "viability, T/C", "setting": "second compound 10 µM, first compound 10 µM", "result": 14.2, "unit": "%"}]}]}
